In ChEMBL document CHEMBL5233255, “Natural and nature-inspired stilbenoids as antiviral agents” (Eur J Med Chem, 2020):
pEC50, pIC50: −log10 of the molar value. Converted amounts (≈) assume the structure as drawn.

Key:
Human alphaherpesvirus 1 [1] = assay: Antiviral activity against HSV-1 clinical isolate infected in African green monkey Vero cells incubated for 3 days by plaque reduction assay; format: functional, organism-based; conditions: Human alphaherpesvirus 1, Vero, 72 h
Human alphaherpesvirus 2 = assay: Antiviral activity against HSV-2 333 infected in African green monkey Vero cells incubated for 3 days by plaque reduction assay; format: functional, organism-based; conditions: Human alphaherpesvirus 2, 333, Vero, 72 h
Human alphaherpesvirus 1 [2] = assay: Antiviral activity against HSV-1 15577 infected in African green monkey Vero cells incubated for 3 days by plaque reduction assay; format: functional, organism-based; conditions: Human alphaherpesvirus 1, 15577, Vero, 72 h
Influenza A virus [3] = assay: Antiviral activity against influenza A virus A/PR/8/34 (H1N1) infected in human A549 cells assessed as inhibition of RANTES production incubated for 48 hrs by ELISA; format: functional, organism-based; conditions: A549, 48 h
[4] = Cytotoxicity against human Huh7.5 cells infected with Hepatitis C virus assessed as reduction in cell viability; format: toxicity, cell-based, Huh-7.5
Hepatitis C virus [5] = assay: Antiviral activity against Hepatitis C virus infected in human Huh7.5 cells assessed as reduction in viral replication; format: functional, organism-based, Hepacivirus hominis
[6] = Cytotoxicity against human A549 cells assessed as reduction in cell viability by Alamar blue assay; format: toxicity, cell-based
[7] = Cytotoxicity against human C8166 cells assessed as inhibition of cell growth by MTT assay; format: toxicity, cell-based
[8] = system: Human immunodeficiency virus 1; assay: Antiviral activity against HIV-1 infected in human C8166 cells assessed as inhibition of viral replication; format: functional, organism-based; conditions: Human immunodeficiency virus 1, C8166
[9] = Cytotoxicity against HCV RNA-transfected human Huh7.5 cells assessed as reduction in cell viability; format: toxicity, cell-based, Huh-7.5; conditions: HCV RNA-transfected Huh7.5 cells
Hepatitis C virus [10] = assay: Antiviral activity against Hepatitis C virus genotype 1 infected in Bart79I RNA-transfected human Huh7.5 cells assessed as reduction in viral replication incubated for 24 to 72 hrs by RT-PCR assay; format: functional, organism-based, Hepacivirus hominis; conditions: genotype 1, Huh7.5
Hepatitis C virus [11] = assay: Antiviral activity against Hepatitis C virus genotype 2 infected in human Huh7.5 cells assessed as reduction in viral replication by RT-PCR assay; format: functional, organism-based, Hepacivirus hominis; conditions: genotype 2, Huh7.5
Hepatitis C virus [12] = assay: Antiviral activity against Hepatitis C virus genotype 2 infected in renilla luciferase-J6/JFH1 RNA-transfected human Huh7.5 cells assessed as reduction in viral replication incubated for 72 hrs by qRT-PCR analysis; format: functional, organism-based, Hepacivirus hominis; conditions: genotype 2, Huh7.5, 72 h
[13] = Cytotoxicity against human MT4 cells expressing eGFP under control of HIV-1 LTR promoter sequence; format: toxicity, cell-based
[14] = Inhibition of HIV-1 integrase catalysed 3' processing activity by densitometric analysis; design: species or system Human immunodeficiency virus 1
[15] = Inhibition of recombinant HIV-1 integrase catalysed strand transfer activity measured after 60 mins by electrochemiluminescent plate-based assay; design: species or system Human immunodeficiency virus 1
[16] = Selectivity index, ratio of CC50 for cytotoxicity against human MT4 cells expressing eGFP under control of HIV-1 LTR promoter sequence to EC50 for antiviral activity against HIV-1 infected in human MT4 cells expressing eGFP under control of HIV-1 LTR promoter sequence; format: toxicity, cell-based; conditions: read-out: Ratio CC50/EC50
[17] = system: Human immunodeficiency virus 1; assay: Antiviral activity against VSV pseudo-typed HIV-1 infected in human MT4 cells expressing eGFP under control of HIV-1 LTR promoter sequence; format: functional, organism-based; conditions: Human immunodeficiency virus 1, MT4
[18] = Therapeutic index, ratio of CC50 for cytotoxicity against human C8166 cells to EC50 for antiviral activity against HIV-1 infected in C8166 cells; format: toxicity, cell-based; conditions: read-out: Ratio CC50/EC50
[19] = system: Human immunodeficiency virus 1; assay: Antiviral activity against HIV-1 infected in HEK293T cells; format: functional, organism-based; conditions: Human immunodeficiency virus 1, HEK-293T
[20] = Cytotoxicity against HEK293T cells; format: toxicity, cell-based, HEK-293T; conditions: human, read-out: TC50 (the source's name)
Influenza A virus [21] = assay: Antiviral activity against influenza A virus A/Guangdong/243/72 ([…]) infected in MDCK cells assessed as inhibition of virus-induced cytopathic effect; format: functional, organism-based
[22] = Selectivity index, ratio of CC50 for cytotoxicity against MDCK cells to IC50 for influenza A virus A/Guangdong/243/72 ([…]) infected in MDCK cells; format: toxicity, cell-based; conditions: dog, read-out: Ratio CC50/IC50

OC[C@H]1O[C@@H](Oc2cc(O)cc(-c3cc4ccc(O)cc4o3)c2)[C@H](O)[C@@H](O)[C@@H]1O
IC50 (Human alphaherpesvirus 1 [1]): 2.5 µg/mL (≈ 6.18 µM)
IC50 (Human alphaherpesvirus 2): 2.5 µg/mL (≈ 6.18 µM)
IC50 (Human alphaherpesvirus 1 [2]): 2.5 µg/mL (≈ 6.18 µM)

Oc1ccc([C@H]2c3c(O)cc(O)cc3[C@H]3c4c(cc(O)cc4[C@@H]2c2cc(/C=C/c4cc(O)cc5c4[C@H](c4cc(O)cc(O)c4)[C@@H](c4ccc(O)cc4)O5)ccc2O)O[C@@H]3c2ccc(O)cc2)cc1 [VITISIN A]
pEC50 (Influenza A virus [3]): 6.57
CC50 [4]: > 10 µM
pEC50 (Hepatitis C virus [5]): 7.46
CC50 [6]: 22.4 µM

OC[C@H]1O[C@@H](Oc2cc(O)cc(/C=C/c3ccc(O)cc3)c2)[C@H](O)[C@@H](O)[C@@H]1O [PICEID]
CC50 [7]: > 200 µg/mL
EC50 [8]: > 200 µg/mL

Oc1ccc(/C=C/c2cc(O)cc3c2[C@@H](c2cc(O)cc(O)c2)[C@H](c2ccc(O)cc2)O3)cc1 [EPSILON-VINIFERIN]
pEC50 (Influenza A virus [3]): 5.00
CC50 [9]: > 10 µM
CC50 [4]: > 10 µM
pEC50 (Hepatitis C virus [10]): 5.15
pEC50 (Hepatitis C virus [5]): 6.80
CC50 [6]: 54.7 µM
pEC50 (Hepatitis C virus [11]): 5.54
pEC50 (Hepatitis C virus [12]): 7.00

Nc1ccc(/N=N/c2ccc(/C=C/c3ccc(/N=N/c4ccc(N)c5ccc(S(=O)(=O)O)cc45)cc3S(=O)(=O)O)c(S(=O)(=O)O)c2)c2ccc(S(=O)(=O)O)cc12
CC50 [13]: > 100 µM
pIC50 [14]: 5.49
pIC50 [15]: 5.49
selectivity ratio [16]: > 6.5
pEC50 [17]: 4.82

O=S(=O)([O-])O[C@H]1[C@H](O)[C@@H](O)[C@H](Oc2cc(O)cc(/C=C/c3ccc(O)cc3)c2)O[C@@H]1CO.[Na+]
CC50 [7]: 813 µg/mL
EC50 [8]: > 200 µg/mL
selectivity ratio [18]: < 4.06

O=C(/C=C/c1ccc(O)cc1)c1cc(O)cc(O)c1
pEC50 [19]: < 4.12

Oc1ccc(-c2ccc(-c3cc(O)cc(O)c3)[nH]2)cc1
pEC50 [19]: < 4.12

Oc1ccc(-c2sc3ccccc3c2-c2cc(O)cc(O)c2)cc1
pEC50 [19]: 4.35
CC50 [20]: 118 µM

O=S(=O)([O-])OC[C@H]1O[C@@H](Oc2cc(O)cc(/C=C/c3ccc(O)cc3)c2)[C@H](O)[C@@H](O)[C@@H]1O.[Na+]
CC50 [7]: 746 µg/mL
EC50 [8]: > 200 µg/mL
selectivity ratio [18]: < 3.73

CC1=C[C@@H](c2c(O)cc(-c3cc4ccc(O)cc4o3)cc2O)[C@@H](C(=O)c2ccc(O)cc2O)[C@H](c2ccc(O)cc2O)C1 [MULBERROFURAN C]
IC50 (Human alphaherpesvirus 1 [1]): 2.5 µg/mL (≈ 4.31 µM)
IC50 (Human alphaherpesvirus 2): 2.5 µg/mL (≈ 4.31 µM)
IC50 (Human alphaherpesvirus 1 [2]): 2.5 µg/mL (≈ 4.31 µM)

O=[N+]([O-])c1ccc(/C=C/c2ccc([N+](=O)[O-])cc2S(=O)(=O)O)c(S(=O)(=O)O)c1
pIC50 [14]: < 3.95
pIC50 [15]: < 3.95

Oc1cc(O)cc(-c2ccc(-c3ccncc3)cc2)c1
pEC50 [19]: < 4.00

CC(C)=CCc1c(O)cc(-c2cc3ccc(O)cc3o2)cc1O [MORACIN C]
IC50 (Human alphaherpesvirus 1 [1]): 2.5 µg/mL (≈ 8.06 µM)
IC50 (Human alphaherpesvirus 2): 2.5 µg/mL (≈ 8.06 µM)
IC50 (Human alphaherpesvirus 1 [2]): 2.5 µg/mL (≈ 8.06 µM)

Oc1ccc(-c2c(-c3cc(O)cc(O)c3)sc3ccccc23)cc1
pEC50 [19]: 4.46
CC50 [20]: 131 µM

Oc1ccc(/C=C/c2cc(O)cc3c2[C@@H](c2cc(O)cc4c2[C@H](c2cc(O)cc5c2[C@@H](c2cc(O)cc(O)c2)[C@H](c2ccc(O)cc2)O5)[C@@H](c2ccc(O)cc2)O4)[C@H](c2ccc(O)cc2)O3)cc1
CC50 [6]: 8.4 µM

O=S(=O)([O-])Oc1ccc(/C=C/c2cc(O)cc(O[C@@H]3O[C@H](CO)[C@@H](O)[C@H](O)[C@H]3O)c2)cc1.[Na+]
CC50 [7]: > 2000 µg/mL
EC50 [8]: > 200 µg/mL

Oc1cc(O)cc(-c2ccc3cc(O)ccc3c2)c1
pEC50 [19]: < 4.12

CCOc1ccc(/N=N/c2ccc(/C=C/c3ccc(/N=N/c4ccc(OCC)cc4)cc3S(=O)(=O)O)c(S(=O)(=O)O)c2)cc1
CC50 [13]: > 100 µM
pIC50 [14]: 5.96
pIC50 [15]: 6.30
selectivity ratio [16]: > 166
pEC50 [17]: 6.22

COc1cc(/C=C/c2cc(O)cc(O)c2)ccc1O
IC50 (Influenza A virus [21]): 4.28 µg/mL (≈ 16.6 µM)
selectivity ratio [22]: 8.99

Oc1cc(O)cc(-c2cc3ccc(O)cc3o2)c1 [MORACIN M]
IC50 (Human alphaherpesvirus 1 [1]): 2.5 µg/mL (≈ 10.3 µM)
IC50 (Human alphaherpesvirus 2): 2.5 µg/mL (≈ 10.3 µM)
IC50 (Human alphaherpesvirus 1 [2]): 2.5 µg/mL (≈ 10.3 µM)
